In PMC5753767 (Bioorganic & medicinal chemistry letters, 2017):
pIC50: −log10 of the molar value. “Also recorded” adds a separate entry of the source.

What was measured:
P. falciparum Dd2 = type: cell-based, Plasmodium falciparum; conditions: chloroquine-resistant Dd2 strain of P. falciparum
HT-29 cancer cell line = conditions: cited from earlier work
Caco-2 cancer cell line = conditions: cited from earlier work
A2780 ovarian cells = test: Antiproliferative activity against A2780 ovarian cells; type: cell-based

SMILES | Antiplasmodial activity (in words) (P. falciparum Dd2) | Cytotoxicity IC50 HT-29 (HT-29 cancer cell line) | Cytotoxicity IC50 Caco-2 (Caco-2 cancer cell line) | Activity against human A2780 cells (in words) (A2780 ovarian cells) | pIC50 (HT-29 cancer cell line; read-out: Cytotoxicity IC50 HT-29, HT-29 cancer cell line) | pIC50 (Caco-2 cancer cell line; read-out: Cytotoxicity IC50 Caco-2, Caco-2 cancer cell line)
COC1=CC(=O)[C@@]23CCN(Cc4c2cc2c(c4OC)OCO2)[C@@H]3C1 [Compound 2, distichamine] | little inhibitory activity | – | – | – | – | –
COc1c2c(cc3c1OCO3)[C@]13C=C[C@H](OC)C[C@H]1[N@](C2)C[C@H]3OC(C)=O [Compound 3, 11-O-acetylambelline] | – | inactive | inactive | – | – | –
COc1c2c(cc3c1OCO3)[C@]13C=C[C@H](OC)C[C@H]1[N@](C2)C[C@H]3O [Compound 4, ambelline] | moderate to good antiplasmodial activity | – | – | lack of activity | – | –
CC(=O)O[C@@H]1CC=C2CCN3Cc4cc5c(cc4[C@H]1[C@@H]23)OCO5 [Compound 5, acetylcaranine] | strong antiplasmodial activity; also recorded: moderate to good antiplasmodial activity | – | – | lack of activity | 4.72 | 4.53
